# Results: US10899879B2, “Biodegradable trehalose glycopolymers” (THE REGENTS OF THE UNIVERSITY OF CALIFORNIA, priority 2014, dated 2021)
# What was measured:
# lysozyme = lysozyme (Gallus gallus, UniProt P00698); assay: Stabilization of lysozyme against heat stress with trehalose-CL as excipient; format: biochemical; conditions: lysozyme 0.02 mg/mL heated to 90° C. for 20 minutes; additive 5 to 25 wt eq.; FIG. 12a
# Method: Stabilization of model proteins using trehalose-caprolactone as excipient. The ability of these biodegradable trehalose polymers to stabilize proteins was confirmed through heat and lyophilization stress assays. […] Therefore, these proteins were also selected to test the biodegradable trehalose polymers. First, lysozyme was stressed by heating to 90° C. for 20 minutes.
# Trehalose-CL and a styrenyl ether trehalose (SET) polymer previously described were also directly compared in their stabilization of lysozyme (FIG. 13) (Lee et al., 2013). […] Thus, the degradable trehalose glycopolymer was similar in stabilization ability to the non-degradable version.
# β-galactosidase (β-Gal) = conditions: three 12-hour desiccation cycles; 25 equivalents of trehalose; FIG. 12b
# Method: The stabilization of β-Gal against lyophilization stress was also measured. […] The activity of β-Gal was determined by reaction with ortho-nitrophenol galactose (ONPG). When incubated with β-Gal, release of the yellow-colored o-nitrophenol from ONPG can be monitored at 405 nm.
# The activity of β-Gal was determined by reaction with ortho-nitrophenol galactose (ONPG). When incubated with β-Gal, release of the yellow-colored o-nitrophenol from ONPG can be monitored at 405 nm.
# Lyophilization studies with β-galactosidase were carried out as previously described; β-Gal was subjected to three 12 hour lyophliization cycles before dilution. Activity was assayed by monitoring the hydrolysis of o-nitrophenol galactose (ONPG) at 405 nm.
# lysozyme, sequence (P00698 19-147): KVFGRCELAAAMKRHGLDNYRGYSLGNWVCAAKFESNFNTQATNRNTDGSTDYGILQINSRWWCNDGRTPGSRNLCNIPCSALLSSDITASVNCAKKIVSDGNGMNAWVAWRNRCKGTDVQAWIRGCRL
compound,measurement,setting,value
OC[C@H]1O[C@H](O[C@H]2O[C@H](CO)[C@@H](O)[C@H](O)[C@H]2O)[C@H](O)[C@@H](O)[C@@H]1O [trehalose],lysozyme native activity retained after heat stress,lysozyme,not significantly different from the negative control
same,"β-Gal native activity maintained after lyophilization stress, 25 equivalents of additive",β-galactosidase (β-Gal),up to 67%
